Data: US6414170B1, “Preparation of cationic surfactants containing ester group in molecules” (LG Chemical Ltd., priority 1998, dated 2002)

Assay: OECD 301D Closed Bottle Test (evaluation of ultimate biodegradability)
Conditions: 60% or more biodegraded two weeks from start of decomposition, test period of 28 days
Excerpt: Measuring of the ultimate biodegradability was made by taking an OECD 301D Closed Bottle Test (a test for determining whether or not 60% or more can be biodegraded two weeks from the time when the sample begins decomposing during the test period of 28 days) on cationic surfactants prepared in EXAMPLES 1 to 8, dimethyl dialkyl ammonium chloride, and imidazoline ester. The ultimate biodegradabilities of cationic surfactants of EXAMPLE 1, 2, 8, and conventional cationic surfactants were less than 60%, thereby not being readily biodegradable.

## dimethyl dialkyl ammonium chloride
  Readily biodegradable: No
